Test results as given in patent publication US20040241840A1, “Compositions for therapy” (priority 2001, published 2004).
Counter-ions that a name gives are not always drawn. Marks after values point to notes of the source that are not given here.

Assays:
[1] = target: T1, low affinity glucocorticoid binding site (LAGS) (Rattus norvegicus, UniProt P70580); test: competition analysis with 5×10^−8M [3H]dexamethasone for binding to the LAGS; conditions: for IC50: read-out: IC50% (concentration of unlabelled competitor reducing specific binding of radiolabelled dexamethasone to the LAGS to 50% of control); for competition with dexamethasone for binding to the LAGS (in words): 4° for 8 hours, FIG. 2
Procedure: Washed liver microsomes (100,000 g pellet) were prepared after canulating the portal vein of a rat and perfusing blood from the liver using ice-cooled hanks buffer.
Data were analysed using standard methods.
Potential competitors were added from ethanol stocks such that the final ethanol concentration in the assay was less than 1% (v/v). Specific binding was determined using conventional methods as described above.
Free ligand was removed using dextran-charcoal. […] Competitors were added from ethanol stocks such that final ethanol concentration in the assay was less than 1% (v/v).

[2] = tested on: rats administered CCl4 (liver fibrosis); test: CCl4 liver fibrosis rat in vivo model; conditions: PCN once weekly during CCl4 twice weekly for 6 weeks
Procedure: Rats were administered CCl4 twice weekly for 6 weeks to cause liver fibrosis and administered PCN once weekly during CCl4 treatment.

rat and human HSCs = test: proliferation of rat and human HSCs, results in words; format: cell-based
Procedure: (§1) Rat hepatic stellate cells (HSCs) were isolated by pronase/collagenase perfusion and purified by isopycnic density centrifugation in Opti-prep™ (Nycomed) and elutriation (Wright et al (2001) Gastroenterology 121(3): 685-698). Human HSCs were isolated from discarded resected liver via a similar protocol. The use of human liver tissue for scientific investigation was approved by the UK South and West Local Research Ethics Commitee and was subject to patient consent.
(§2) HSCs were cultured in Dulbecco's modified Eagle Medium (DMEM) containing 4.5 g/l of glucose, supplemented with 16% (v/v) fetal calf serum, 80 u/ml penicillin, 80 μg/ml streptomycin and 32 μg/ml gentamycin. Cells were seeded onto plastic culture dishes and incubated at 37° C. in an humidified incubator gassed with 5% CO2 in air. The culture medium was renewed after the first day and thereafter every 3-4 days.
(§3) However, when rat and human HSCs were treated with ligands of LAGS, the proliferation and activation of the HSCs was inhibited. In addition, T6 cells (rat hepatic stellate cell line) were seeded at low density in 6 well plates in DMEM supplemented with 4% (v/v) FCS. The T6 cells were re-treated at 24 hours and counted at 48 hours. Human hepatic stellate cells were treated at days 2, 5, 7, 9 and 12 of culture and counted on day 15 of culture. Control cells were treated identically with 0.1% (v/v) ethanol used to prepare steroid stocks.

[3] = tested on: T6 cells (rat hepatic stellate cell line); test: proliferation of T6 cells (cell count); format: cell-based; conditions: re-treated at 24 hours, counted at 48 hours
Procedure: as §3

[4] = target: T1, low affinity glucocorticoid binding site (LAGS); test: specific binding of 10 nM [3H]dexamethasone in rat liver microsomes; conditions: read-out: % specific binding compared to dexamethasone alone, microsomes
glucocorticoid receptor = target: T2, glucocorticoid receptor (Rattus norvegicus, UniProt P06536); test: specific binding of 10 nM [3H]dexamethasone in rat liver cytosol
T2 construct: from tissue; host or cells: rat liver cytosol
T2 sequence (P06536 1-795): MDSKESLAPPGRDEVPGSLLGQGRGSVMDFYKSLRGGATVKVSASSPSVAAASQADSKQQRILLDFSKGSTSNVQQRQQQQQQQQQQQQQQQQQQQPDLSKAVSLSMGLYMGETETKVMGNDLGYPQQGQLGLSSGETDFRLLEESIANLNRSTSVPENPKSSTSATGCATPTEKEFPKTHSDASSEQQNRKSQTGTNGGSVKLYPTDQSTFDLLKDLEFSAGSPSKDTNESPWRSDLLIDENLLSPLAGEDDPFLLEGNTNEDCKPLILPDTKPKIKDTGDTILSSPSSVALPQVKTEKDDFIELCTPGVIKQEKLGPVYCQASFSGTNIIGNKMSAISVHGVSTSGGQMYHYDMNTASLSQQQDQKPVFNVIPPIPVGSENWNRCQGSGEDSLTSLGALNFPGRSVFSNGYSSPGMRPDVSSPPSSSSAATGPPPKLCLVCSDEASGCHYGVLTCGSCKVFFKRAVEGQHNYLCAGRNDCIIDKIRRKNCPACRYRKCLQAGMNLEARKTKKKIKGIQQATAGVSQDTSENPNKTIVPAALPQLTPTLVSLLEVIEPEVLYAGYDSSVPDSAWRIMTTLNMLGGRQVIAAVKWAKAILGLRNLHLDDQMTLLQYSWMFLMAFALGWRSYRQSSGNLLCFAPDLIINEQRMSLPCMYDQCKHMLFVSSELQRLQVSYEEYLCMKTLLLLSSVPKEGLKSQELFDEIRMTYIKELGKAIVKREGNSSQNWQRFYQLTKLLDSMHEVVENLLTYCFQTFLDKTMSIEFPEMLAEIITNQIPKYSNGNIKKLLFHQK

[5] = tested on: α-smooth muscle actin expression in human HSCs; test: α-smooth muscle actin expression in cultured human hepatic stellate cells (Western blotting); format: cell-based; conditions: human HSCs cultured for 15 days, FIG. 3
Procedure: The effect of LAGS ligands on activation to the pro-fibrogenic phenotype was investigated by measuring the effect of LAGS ligands on expression of α-smooth muscle actin in cultured human hepatic stellate cells. […] Whole cell extracts (10 μg protein/lane) were probed for alpha-smooth muscle actin and GFAP (glial fibrillary acidic protein—loading control) protein expression by Western blotting. Scanned blots were quantitated using Phoretix software (Nonlinear Dynamics, Newcastle, UK).

human HSCs = test: proliferation of human hepatic stellate cells (cell count); format: cell-based; conditions: treated at days 2, 5, 7, 9 and 12, counted on day 15
Procedure: as §1, §2
as §3, with “Control cells were treated identically with 0.1% (v/v) ethanol used to prepare steroid stocks.” left out

[6] = target: T1, low affinity glucocorticoid binding site (LAGS); conditions: 1 μM; Wright & Paine (1995); cited from earlier work

T1 sequence (P70580 2-195): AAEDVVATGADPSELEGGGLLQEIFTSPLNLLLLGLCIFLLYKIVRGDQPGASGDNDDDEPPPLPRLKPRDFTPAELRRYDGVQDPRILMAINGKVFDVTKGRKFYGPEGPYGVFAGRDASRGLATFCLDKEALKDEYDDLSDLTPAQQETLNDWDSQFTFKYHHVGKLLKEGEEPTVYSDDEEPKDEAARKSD

## CC(=NOCC(=O)O)[C@H]1CC[C@H]2[C@@H]3CCC4=C[C@@H](O)CC[C@]4(C)[C@H]3CC[C@]12C [4 pregnene-3β-ol-20-one carboxymethyloxime]
[1]
  IC50: > 100 µM

## CC(=O)[C@H]1CC[C@H]2[C@@H]3C[C@@H](O)C4=CC(=O)CC[C@]4(C)[C@H]3CC[C@]12C [6α-hydroxyprogesterone]
[1]
  IC50: 5 µM

## CC(=O)O[C@@H]1C[C@H]2[C@@H]3CC[C@H](C(C)=O)[C@@]3(C)CC[C@@H]2[C@@]2(C)CCC(=O)C=C12 [6β-progesterone acetate]
[1]
  IC50: 0.5 µM

## CC(=O)[C@H]1CC[C@H]2[C@@H]3CCC4=CC(=O)CC[C@]4(C)[C@H]3[C@H](O)C[C@]12C [11α-hydroxyprogesterone]
[1]
  IC50: 0.1 µM

## CC(=O)O[C@@H]1C[C@]2(C)[C@@H](C(C)=O)CC[C@H]2[C@@H]2CCC3=CC(=O)CC[C@]3(C)[C@H]21 [11α-progesterone acetate]
[1]
  IC50: 0.1 µM

## CC(=O)[C@H]1CC[C@H]2[C@@H]3CCC4=CC(=O)CC[C@]4(C)[C@H]3[C@@H](OS(=O)(=O)c3ccc(C)cc3)C[C@]12C [11β-progesterone tosylate]
[1]
  IC50: 10 µM

## CC1CC2C3CCC4=CC(=O)C=CC4(C)C3(F)C(O)CC2(C)C1(O)C(=O)O (stereo not drawn) [17β-carboxylic acid derivative, 9α-fluoro 16α-methyl-11β,17α-dihydroxy-1,4-pregn-3-one 17-carboxylic acid]
[1]
  IC50: 100 µM

## CC(=O)[C@H]1[C@H](C#N)C[C@H]2[C@@H]3CC=C4C[C@@H](O)CC[C@]4(C)[C@H]3CC[C@@]21C [PCN, pregnenolone 16-alpha carbonitrile]
[2]
  Sirius red staining (collagens) in liver: significantly reduced
  blinded histological scoring of H&E stained liver sections, CCl4 versus CCl4/PCN treated rats: no significant difference
  liver serum (AST) enzyme levels, CCl4 versus CCl4/PCN treated rats: no significant difference
  number of cells and extent of α-smooth muscle actin staining in livers: significantly reduced
Rat and human HSCs
  effect on cell proliferation (in words): inhibited in their ability to proliferate
[3]; 10 μM
  % proliferation versus control (100%), T6 cells: 55 +/− 17%
[1]
  competition with dexamethasone for binding to the LAGS (in words): compete with dexamethasone for binding to the LAGS

## CC#C[C@]1(O)CC[C@H]2[C@@H]3CCC4=CC(=O)CCC4=C3[C@@H](c3ccc(N(C)C)cc3)C[C@@]21C [RU486]
[4]
  activity at 10 µM: 123%
Glucocorticoid receptor; 10 μM RU486, mean and SD of 3 samples
  % specific binding compared to dexamethasone alone, cytosol: 0* %

## CO[C@H]1C[C@H](O[C@H]2[C@H](C)[C@@H](O[C@@H]3O[C@H](C)C[C@H](N(C)C)[C@H]3OC(C)=O)[C@@H](C)C[C@@]3(CO3)C(=O)[C@H](C)[C@@H](OC(C)=O)[C@@H](C)[C@@H](C)OC(=O)[C@@H]2C)O[C@@H](C)[C@@H]1OC(C)=O [TAO, troleandomycin]
[3]; 100 μM
  % proliferation versus control (100%), T6 cells: 106 +/− 2.8%

## Clc1ccccc1C(c1ccccc1)(c1ccccc1)n1ccnc1 [clotrimazole]
[5]; 1 μM clotrimazole
  expression of α-smooth muscle actin (in words): inhibited expression of α-smooth muscle actin
Rat and human HSCs
  effect on cell proliferation (in words): inhibited in their ability to proliferate
Human HSCs; 5 μM
  % proliferation versus control (100%), human HSCs: 25 +/− 13%
[3]; 5 μM
  % proliferation versus control (100%), T6 cells: 18 +/− 4.7%
[1]
  competition with dexamethasone for binding to the LAGS (in words): compete with dexamethasone for binding to the LAGS

## C[C@@H]1C[C@H]2[C@@H]3CCC4=CC(=O)C=C[C@]4(C)[C@@]3(F)[C@@H](O)C[C@]2(C)[C@@]1(O)C(=O)COS(C)(=O)=O [dexamethasone mesylate]
[1]
  IC50: 10 µM

## C[C@@H]1C[C@H]2[C@@H]3CCC4=CC(=O)C=C[C@]4(C)[C@@]3(F)[C@@H](O)C[C@]2(C)[C@@]1(O)C(=O)CO [dexamethasone]
Rat and human HSCs
  effect on cell proliferation (in words): no effect

## CC(C)(C(=O)c1cccnc1)c1cccnc1 [metyrapone]
[5]; 200 μM metyrapone
  expression of α-smooth muscle actin (in words): inhibited expression of α-smooth muscle actin
Rat and human HSCs
  effect on cell proliferation (in words): inhibited in their ability to proliferate
Human HSCs; 500 μM
  % proliferation versus control (100%), human HSCs: 76 +/− 18%
[3]; 500 μM
  % proliferation versus control (100%), T6 cells: 52 +/− 5.7%
[1]
  competition with dexamethasone for binding to the LAGS (in words): compete with dexamethasone for binding to the LAGS
Glucocorticoid receptor; metyrapone, concentration not given, mean and SD of 3 samples
  % specific binding compared to dexamethasone alone, cytosol: 105 +/− 4.0%

## CCC1(c2ccccc2)C(=O)NC(=O)NC1=O [phenobarbitone]
[1]
  competition with dexamethasone for binding to the LAGS (in words): compete with dexamethasone for binding to the LAGS

## CC(=O)C1CCC2C3CCC4=CC(=O)CCC4(C)C3CCC12C (stereo not shown) [progesterone]
Rat and human HSCs
  effect on cell proliferation (in words): no effect
[1]
  competition with dexamethasone for binding to the LAGS (in words): compete with dexamethasone for binding to the LAGS

## betamethasonenone
[1]
  IC50: 5 µM

## biotinylated dexamethasone
[1]
  IC50: > 100 µM

## oestradiol
[5]; 1 μM oestradiol
  expression of α-smooth muscle actin (in words): inhibited expression of α-smooth muscle actin
[6]
  binding to the LAGS (in words): a ligand for the LAGS at this concentration
